Measurements from patent publication EP0343268A1, “Pharmaceutical composition and process for preparing the same” (BIOGAL GYOGYSZERGYAR, priority 1988, dated 1989).

Legend:
[1] = in the presence of sulfhydryl-containing compounds, particularly acetylcysteine; cited from earlier work
[2] = In vitro mucolytic effect on ear discharges
[3] = system: pathogenic microorganisms occurring in the discharges of patients suffering from chronic otitis (otitis media chronica); experiment: Treatment of ear discharges by antibacterial agents (sensitivity of the pathogens); format: cell-based
Procedure: In the Department for Qtorhinolaryngology of the Medical University of Debrecen, adult and child patients were examined to identify the types of pathogenic microorganisms occurring in the discharges of patients suffering from chronic otitis (otitis media chronica); the discharges of 510 patients were analyzed for the bacterial infection.

[4] = system: chronic mesotympanic otitis; experiment: Single-ingredient treatment of patients with chronic mesotympanic otitis; format: in vivo; details: 1% solution
Source text: (§1) Several compositions according to the invention were also studied with omitting one active ingredient of the composition in order to support the progressive character of the multi-active-component type composition according to the invention. These experiments led to the following results.

external otitis = experiment: Single-ingredient treatment of patients with external otitis; format: in vivo; details: 1% solution
Source text: as §1

[5] = Single-ingredient treatment of patients (steroid alone; sulfhydryl compound solution alone); format: in vivo; details: aqueous solutions (pH 7.0±0.2) of 3 to 19%, preferably 5 to 15%
Source text: as §1
An objective improvement was observed only in those cases involving large eardrum defects, strong hyperaemia and significant mucous membrane hypertrophy of the tympanic cavity as well as in the cases of external eczematous otitis (otitis externa ekzematosa).
The dilution of the discharge was not observed during the use,however, the amount of the discharge was somewhat reduced in spite of the decrease of its viscosity. The discharge, which was coherent and mucous in character, rather took the form of a precipitate under effect of the treatment by an acetylcysteine solution.

[6] = cited from earlier work
[7] = cited from earlier work; remark: listed apart in the source
[8] = cited from earlier work; remark: listed apart in the source
[9] = system: several gram-positive and gram-negative bacteria such as Pseudomonas aeruginosa; details: in vitro conditions; cited from earlier work
[10] = number of cases, total number of the examinations 510

C[C@H]1c2cccc(O)c2C(O)=C2C(=O)[C@]3(O)C(O)=C(C(N)=O)C(=O)[C@@H](N(C)C)[C@@H]3[C@@H](O)[C@@H]21 [doxycyclin]
absorption from the stomach [1]: not disadvantageously influenced

CC(C)(CO)[C@@H](O)C(=O)NCCC(=O)NCCS [pantetheine]
mucolytic effect [2]: a mucolytic effect can also be shown

N[C@@H](CSCC(=O)O)C(=O)O [carbocysteine]
mucolytic effect [2]: a mucolytic effect can also be shown

CC1(C)S[C@@H]2[C@H](NC(=O)[C@H](N)c3ccc(O)cc3)C(=O)N2[C@H]1C(=O)O [amoxicillin]
absorption from the stomach [1]: not disadvantageously influenced

O=C(O)C(S)C(S)C(=O)O (stereo not shown) [dimercaptosuccinate]
mucolytic effect [2]: a mucolytic effect can also be shown

Penicillin
A = therapeutically active (sensitive) [3, 10]: 67
M = moderately active [3, 10]: 22
R = inactive (resistant) [3, 10]: 218
Act. = activity % ([3]; share of examined cases moderately active or active): 29.4%

N[C@@H](CCC(=O)N[C@@H](CS)C(=O)NCC(=O)O)C(=O)O [glutathione]
mucolytic effect [2]: a mucolytic effect can also be shown

NC[C@H]1O[C@H](O[C@H]2[C@H](O)[C@@H](O[C@H]3O[C@H](CO)[C@@H](O)[C@H](N)[C@H]3O)[C@H](N)C[C@@H]2N)[C@H](N)C[C@@H]1O [Tobramycin]
substantial improvement of the pathological processes [4]: about 60 % of patients
substantial improvement of the pathological processes (external otitis): ≤ 40%
absorption from the stomach [1]: not disadvantageously influenced

O[C@H](CS)[C@@H](O)CS [dithioerythritol]
mucolytic effect [2]: a mucolytic effect can also be shown

CC(=O)N[C@@H](CS)C(=O)O [acetylcysteine, N-acetyl-L-cysteine]
inflammatory symptomes [5]: moderated
viscosity of the discharge [5]: advantageously influenced
LD₅₀ in dogs [6]: 1000 mg/kg of body-weight
LD₅₀ in rats [7]: 6000 mg/kg of body-weight
LD₅₀ in mice [8]: 3000 mg/kg of body-weight
effect with several antibiotics [9]: synergistic effect

Neomycin
absorption from the stomach [1]: not disadvantageously influenced

CC[C@H]1OC(=O)[C@H](C)[C@@H](O[C@H]2C[C@@](C)(OC)[C@@H](O)[C@H](C)O2)[C@H](C)[C@@H](O[C@@H]2O[C@H](C)C[C@H](N(C)C)[C@H]2O)[C@](C)(O)C[C@@H](C)C(=O)[C@H](C)[C@@H](O)[C@]1(C)O [Erythromycin]
absorption from the stomach [1]: not disadvantageously influenced
